Laboratory results reported in patent US6605614B2, “[1,8] naphthyridine derivatives having antiviral activity” (BioChem Pharma Inc., priority 1999, dated 2003).
Counter-ions that a name gives are not always drawn.

What was measured:
BVDV(NADL) = assay: WST-1 based BVDV anti-viral assay (CPE reduction in infected MDBK cells); format: cell-based; settings: Bovine viral diarrhea virus isolates and strains, 96 h, MDBK cells infected with cytopathic BVDV (NADL), MOI 0.006 to 0.01, 4 days incubation, WST-1 readout, read-out: BVDV antiviral effect IC50
Procedure: Currently, the WST-1 based BVDV assay, is being used as surrogate to evaluate potential anti-HCV agents since BVDV (bovine viral diarrhea virus) shares functional homology with the HCV.
To determine the anti-viral effect of the compounds, MDBK cells were infected with the cytopathic strain of BVDV(NADL) using a 0.006 to 0.01 MOI. 3000 cells were then seeded in each well of a 96-well plate containing the compound. The final volume was 200 μl of media per wells. […] Cell culture was then incubated for another 2 hrs at 37° C., after which 20 μl of 10% SDS was added to each well in order to inactivate the virus and the OD at 450 nm was determined using a microplate reader (Dynatech MR5000). […]

[1] = Compound toxicity, WST-1, non-infected MDBK cells; format: cell-based; settings: bovine, 4 days incubation, WST-1 readout
Procedure: To determine the anti-viral effect of the compounds, MDBK cells were infected with the cytopathic strain of BVDV(NADL) using a 0.006 to 0.01 MOI. 3000 cells were then seeded in each well of a 96-well plate containing the compound. The final volume was 200 μl of media per wells. […] Cell culture was then incubated for another 2 hrs at 37° C., after which 20 μl of 10% SDS was added to each well in order to inactivate the virus and the OD at 450 nm was determined using a microplate reader (Dynatech MR5000).
In parallel, the same experiment was performed using non-infected cells to determine the compound toxicity. […]

| Compound | IC50 (BVDV(NADL)) [µM] | CC50 at 4 days [1] [µM] |
| --- | --- | --- |
| O=C(Nc1cccnc1)c1ccc2cccnc2n1 [Compound #29, [1,8] naphthyridine-2-carboxylic acid pyridin-3-yl-amide] | ~3.2 | > 79.9 |
| O=C(Nc1nccs1)c1ccc2cccnc2n1 [Compound #22, [1,8] naphthyridine-2-carboxylic acid thiazol-2-ylamide] |  | > 78 |
| O=C(Nc1cccc([N+](=O)[O-])c1)c1ccc2cccnc2n1 [Compound #19, [1,8] naphthyridine-2-carboxylic acid (3-nitrophenyl)-amide] | ~1.7 | > 68 |
| O=C(NCc1cccc(C(F)(F)F)c1)c1ccc2cccnc2n1 [Compound #31, [1,8] naphthyridine-2-carboxylic acid (phenylmethyl-3-trifluoromethyl)-amide] | ~3 | > 60.4 |
| O=C(Nc1ccccc1)c1ccc2cccnc2n1 [Compound #28, [1,8] naphthyridine-2-carboxylic acid phenyl-amide] |  | > 80.2 |
| CC(C)Oc1ccccc1CNC(=O)c1ccc2cccnc2n1 [Compound #8, [1,8] naphthyridine-2-carboxylic acid 2-isopropoxy-benzylamide] | < 62.2 | > 62.2 |
| O=C(NCc1ccccn1)c1ccc2cccnc2n1 [Compound #13, [1,8] naphthyridine-2-carboxylic acid (pyridin-2-ylmethyl)-amide] |  | > 75.7 |
| O=C(NCc1ccccc1Cl)c1ccc2cccnc2n1 [Compound #17, [1,8] naphthyridine-2-carboxylic acid 2-chloro-benzylamide] | ~3.6 | > 67.2 |
| COc1ccc(CNC(=O)c2ccc3cccnc3n2)cc1 [Compound #3, [1,8] naphthyridine-2-carboxylic acid 4-methoxy-benzylamide] | ~1.7 | > 68.2 |
| O=C(Nc1cccc(C(F)(F)F)c1)c1ccc2cccnc2n1 [Compound #30, [1,8] naphthyridine-2-carboxylic acid (phenyl-3-trifluoromethyl)-amide] | ~0.6 | 6.3 |
| O=C(Nc1ccccc1F)c1ccc2cccnc2n1 [Compound #24, [1,8] naphthyridine-2-carboxylic acid (2-fluoro-phenyl)-amide] | ~7.5 | > 74.8 |
| COc1cc(OC)c(CNC(=O)c2ccc3cccnc3n2)c(OC)c1 [Compound #5, [1,8] naphthyridine-2-carboxylic acid 2,4,6-trimethoxy-benzylamide] | ~1.1 | > 56.6 |
| CC[C@@H](C)Oc1ccccc1CNC(=O)c1ccc2cccnc2n1 [Compound #10, (−)-[1,8] naphthyridine-2-carboxylic acid 2-sec-butoxy-benzylamide] | > 6 | > 6 |
| O=C(NCc1ccccc1F)c1ccc2cccnc2n1 [Compound #16, [1,8] naphthyridine-2-carboxylic acid 2-fluoro-benzylamide] | ~1.1 | > 71.1 |
| O=C(Nc1ccccn1)c1ccc2cccnc2n1 [Compound #15, [1,8] naphthyridine-2-carboxylic acid pyridin-2-ylamide] |  | > 79.9 |
| COc1cccc(CNC(=O)c2ccc3cccnc3n2)c1 [Compound #4, [1,8] naphthyridine-2-carboxylic acid 3-methoxy-benzylamide] | ~6.8 | > 68.2 |
| COc1ccccc1CNC(=N)c1ccc2cccnc2n1 [Compound #27, N-(2-methoxy-benzyl)-[1,8]naphthyridine-2-carboxamidine trifluoroacetate] | ~0.33 | > 63.2 |
| O=C(Nc1nc2ccccc2s1)c1ccc2cccnc2n1 [Compound #23, [1,8] naphthyridine-2-carboxylic acid benzothiazol-2-ylamide] |  | > 6.5 |
| O=C(NCc1ccccc1)c1ccc2cccnc2n1 [Compound #2, [1,8] naphthyridine-2-carboxylic acid benzylamide] | < 76 | > 76 |
| O=C(NCc1cccnc1)c1ccc2cccnc2n1 [Compound #12, [1,8] naphthyridine-2-carboxylic acid (pyridin-3-ylmethyl)-amide] | ~18.9 | > 75.7 |
